Experiments:
[1] = target: T1, MTHFD1 recombinant human enzyme (Homo sapiens, UniProt P11586); test: MTHFD1 inhibition assay (NAD(P)H-Glo luminescence); details: MTHFD1 IC50, recombinant human enzyme 200 nM, NADP, band
T1 sequence (P11586 2-291 limits assumed): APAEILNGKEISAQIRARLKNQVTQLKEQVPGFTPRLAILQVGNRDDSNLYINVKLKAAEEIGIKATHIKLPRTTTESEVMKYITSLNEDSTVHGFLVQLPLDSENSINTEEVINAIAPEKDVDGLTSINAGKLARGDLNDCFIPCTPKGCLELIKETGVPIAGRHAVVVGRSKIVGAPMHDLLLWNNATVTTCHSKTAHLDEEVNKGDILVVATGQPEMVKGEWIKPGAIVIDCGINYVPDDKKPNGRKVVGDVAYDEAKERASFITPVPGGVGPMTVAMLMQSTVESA

[2] = target: T2, MTHFD2 recombinant human enzyme (Homo sapiens, UniProt P13995); test: MTHFD2 inhibition assay (NAD(P)H-Glo luminescence); details: for MTHFD1/MTHFD2 IC50 ratio: selectivity of MTHFD2 inhibition over MTHFD1, band
T2 sequence (P13995 36-350): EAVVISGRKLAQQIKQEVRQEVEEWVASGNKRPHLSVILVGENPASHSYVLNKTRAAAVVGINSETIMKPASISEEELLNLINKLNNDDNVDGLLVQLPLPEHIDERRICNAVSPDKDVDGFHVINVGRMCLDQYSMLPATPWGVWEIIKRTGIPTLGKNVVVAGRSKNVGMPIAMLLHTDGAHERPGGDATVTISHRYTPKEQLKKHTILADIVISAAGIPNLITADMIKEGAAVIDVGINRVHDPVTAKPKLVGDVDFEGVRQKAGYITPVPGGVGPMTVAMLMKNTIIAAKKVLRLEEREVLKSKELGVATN

For `COC[C@H]1CN(c2cc(C)c3c4c(c(=O)oc3c2C)CN(C(=O)c2ccc(C(=O)NS(=O)(=O)N(C)C)c(N3C5CCC3CC5)c2)CC4)CCN1C` [Example 49, (R)-2-(7-azabicyclo[2.2.1]heptan-7-yl)-N-(N,N-dimethylsulfamoyl)-4-(8-(3-(methoxymethyl)-4-methylpiperazin-1-yl)-7,10-dimethyl-5-oxo-1,3,4,5-tetrahydro-2H-chromeno[3,4-c]pyridine-3-carbonyl)benzamide], the IC50 [1] was 1 to 10 nM, the IC50 [2] was 1 to 10 nM and the “MTHFD1/MTHFD2 IC50 ratio” value [2] was “F (<3)”.
`COC[C@H]1CN(c2cc(Cl)c3c4c(c(=O)oc3c2C)CN(C(=O)c2cc(OC3CC3)c(C(=O)NS(=O)(=O)N3C5CCC3COC5)cc2F)CC4)CCN1C` [Example 307, N-((3-oxa-8-azabicyclo[3.2.1]octan-8-yl)sulfonyl)-4-(10-chloro-8-((R)-3-(methoxymethyl)-4-methylpiperazin-1-yl)-7-methyl-5-oxo-1,3,4,5-tetrahydro-2H-chromeno[3,4-c]pyridine-3-carbonyl)-2-cyclopropoxy-5-fluorobenzamide] gave an IC50 [1] of 1000 to 5000 nM and an IC50 [2] of 10 to 100 nM.
In the case of `CCOc1cc(C(=O)N2CCc3c(c(=O)oc4c(C)c(N5CCN(C)[C@@H](COC)C5)cc(C)c34)C2)cc(C(F)(F)F)c1C(=O)NS(=O)(=O)N1CCCC1` [Example 160, (R)-2-ethoxy-4-(8-(3-(methoxymethyl)-4-methylpiperazin-1-yl)-7,10-dimethyl-5-oxo-1,3,4,5-tetrahydro-2H-chromeno[3,4-c]pyridine-3-carbonyl)-N-(pyrrolidin-1-ylsulfonyl)-6-(trifluoromethyl)benzamide], the IC50 [1] is reported as 1000 to 5000 nM, the IC50 [2] is reported as 100 to 1000 nM and the “MTHFD1/MTHFD2 IC50 ratio” value [2] is reported as “H (>9.0 to 30)”.
`COC[C@H]1CN(c2cc(Cl)c3c4c(c(=O)oc3c2C)CN(C(=O)c2cc(OC3CC3)c(C(=O)NS(=O)(=O)N(C)C)cc2F)CC4)CCN1C` [Example 306, (R)-4-(10-chloro-8-(3-(methoxymethyl)-4-methylpiperazin-1-yl)-7-methyl-5-oxo-1,3,4,5-tetrahydro-2H-chromeno[3,4-c]pyridine-3-carbonyl)-2-cyclopropoxy-N-(N,N-dimethylsulfamoyl)-5-fluorobenzamide] was tested, and the IC50 [1] was 100 to 1000 nM, the IC50 [2] was 10 to 100 nM and the “MTHFD1/MTHFD2 IC50 ratio” value [2] was “J (>30)”.
In the case of `COC[C@H]1CN(c2cc(C)c3c4c(c(=O)oc3c2C)CN(C(=O)c2ccc(C(=O)NS(=O)(=O)C3(C)CC3)c(N3CCCC(F)(F)C3)c2)CC4)CCN1C` [Example 75, (R)-2-(3,3-difluoropiperidin-1-yl)-4-(8-(3-(methoxymethyl)-4-methylpiperazin-1-yl)-7,10-dimethyl-5-oxo-1,3,4,5-tetrahydro-2H-chromeno[3,4-c]pyridine-3-carbonyl)-N-((1-methylcyclopropyl)sulfonyl)benzamide], the IC50 [1] is reported as 1 to 10 nM, the IC50 [2] is reported as 1 to 10 nM and the “MTHFD1/MTHFD2 IC50 ratio” value [2] is reported as “G (^ 3 to 9.0)”.
In the case of `COC[C@H]1CN(c2cc(C)c3c4c(c(=O)oc3c2C)CN(C(=O)c2ccc(C(=O)NS(=O)(=O)N3CCCC3)c(OC3CC3)c2F)CC4)CCN1C` [Example 212, (R)-2-cyclopropoxy-3-fluoro-4-(8-(3-(methoxymethyl)-4-methylpiperazin-1-yl)-7,10-dimethyl-5-oxo-1,3,4,5-tetrahydro-2H-chromeno[3,4-c]pyridine-3-carbonyl)-N-(pyrrolidin-1-ylsulfonyl)benzamide], the IC50 [1] is reported as 10 to 100 nM, the IC50 [2] is reported as 1 to 10 nM and the “MTHFD1/MTHFD2 IC50 ratio” value [2] is reported as “F (<3)”.
In the case of `COC[C@H]1CN(c2ccc3c4c(c(=O)oc3c2C)CN(C(=O)c2ccc(C(=O)NS(=O)(=O)C3(C)CC3)c(O[C@@H]3C[C@@H]5C[C@@H]5C3)c2F)CC4)CCN1C` [Example 59, 2-(((1R,3r,5S)-bicyclo[3.1.0]hexan-3-yl)oxy)-3-fluoro-4-(8-((R)-3-(methoxymethyl)-4-methylpiperazin-1-yl)-7-methyl-5-oxo-1,3,4,5-tetrahydro-2H-chromeno[3,4-c]pyridine-3-carbonyl)-N-((1-methylcyclopropyl)sulfonyl)benzamide], the IC50 [1] is reported as 1 to 10 nM, the IC50 [2] is reported as 1 to 10 nM and the “MTHFD1/MTHFD2 IC50 ratio” value [2] is reported as “F (<3)”.
`COC[C@H]1CN(c2cc(C)c3c4c(c(=O)oc3c2C)CN(C(=O)c2ccc(C(=O)NS(=O)(=O)N3CCCC3)c(OCC(F)(F)F)c2F)CC4)CCN1C` [Example 206, (R)-3-fluoro-4-(8-(3-(methoxymethyl)-4-methylpiperazin-1-yl)-7,10-dimethyl-5-oxo-1,3,4,5-tetrahydro-2H-chromeno[3,4-c]pyridine-3-carbonyl)-N-(pyrrolidin-1-ylsulfonyl)-2-(2,2,2-trifluoroethoxy)benzamide] was tested, and the IC50 [1] was 10 to 100 nM, the IC50 [2] was 10 to 100 nM and the “MTHFD1/MTHFD2 IC50 ratio” value [2] was “F (<3)”.
With `COC[C@@H]1CN(c2ccc3c4c(c(=O)oc3c2C)CN(C(=O)c2ccc(C(=O)NS(=O)(=O)N3CCCC3)c(OC3CCC3)c2F)CC4)CCN1C` [Example 162, (S)-2-cyclobutoxy-3-fluoro-4-(8-(3-(methoxymethyl)-4-methylpiperazin-1-yl)-7-methyl-5-oxo-1,3,4,5-tetrahydro-2H-chromeno[3,4-c]pyridine-3-carbonyl)-N-(pyrrolidin-1-ylsulfonyl)benzamide] the IC50 [1] was 100 to 1000 nM, the IC50 [2] was 100 to 1000 nM and the “MTHFD1/MTHFD2 IC50 ratio” value [2] was “F (<3)”.
In the case of `COC[C@H]1CN(c2cc(C)c3c4c(c(=O)oc3c2C)CN(C(=O)c2ccc(C(=O)NS(=O)(=O)N(C)C)c(O[C@H]3C[C@@H]5C[C@@H]5C3)c2F)CC4)CCN1C` [Example 67, 2-(((1R,3s,5S)-bicyclo[3.1.0]hexan-3-yl)oxy)-N-(N,N-dimethylsulfamoyl)-3-fluoro-4-(8-((R)-3-(methoxymethyl)-4-methylpiperazin-1-yl)-7,10-dimethyl-5-oxo-1,3,4,5-tetrahydro-2H-chromeno[3,4-c]pyridine-3-carbonyl)benzamide], the IC50 [1] is reported as 1 to 10 nM, the IC50 [2] is reported as 1 to 10 nM and the “MTHFD1/MTHFD2 IC50 ratio” value [2] is reported as “F (<3)”.
`COC[C@H]1CN(c2cc(C)c3c4c(c(=O)oc3c2C)CN(C(=O)c2cc3c(c(C(=O)NS(=O)(=O)N5CCCC5)c2)OC2(CCC2)O3)CC4)CCN1C` [Example 167, (R)-6-(8-(3-(methoxymethyl)-4-methylpiperazin-1-yl)-7,10-dimethyl-5-oxo-1,3,4,5-tetrahydro-2H-chromeno[3,4-c]pyridine-3-carbonyl)-N-(pyrrolidin-1-ylsulfonyl)spiro[benzo[d][1,3]dioxole-2,1′-cyclobutane]-4-carboxamide] was tested, and the IC50 [1] was over 5000 nM, the IC50 [2] was 100 to 1000 nM and the “MTHFD1/MTHFD2 IC50 ratio” value [2] was “H (>9.0 to 30)”.
In the case of `CCOc1c(C(=O)NS(=O)(=O)N2C3CCCC2CC3)ccc(C(=O)N2CCc3c(c(=O)oc4c(C)c(N5CCN(C)[C@@H](COC)C5)cc(C)c34)C2)c1F` [Example 234], the IC50 [1] is reported as 10 to 100 nM, the IC50 [2] is reported as 10 to 100 nM and the “MTHFD1/MTHFD2 IC50 ratio” value [2] is reported as “F (<3)”.
With `COC[C@H]1CN(c2cc(C)c3c4c(c(=O)oc3c2C)CN(C(=O)c2ccc(C(=O)NS(=O)(=O)N3CCCC3)c(N3CC5CCC3C5)c2)CC4)CCN1C` (stereo partly drawn) [Example 115, 2-(2-azabicyclo[2.2.1]heptan-2-yl)-4-(8-((R)-3-(methoxymethyl)-4-methylpiperazin-1-yl)-7,10-dimethyl-5-oxo-1,3,4,5-tetrahydro-2H-chromeno[3,4-c]pyridine-3-carbonyl)-N-(pyrrolidin-1-ylsulfonyl)benzamide] the IC50 [1] was 10 to 100 nM, the IC50 [2] was 10 to 100 nM and the “MTHFD1/MTHFD2 IC50 ratio” value [2] was “F (<3)”.
